Blank lines part the entries; values can stand above or below the compound they belong to.
Columns and labels:
[1] = biological target: T1, OGOR (2-oxoglutarate:ferredoxin oxidoreductase, Forαβγδε) (Aquifex aeolicus, UniProt O67229+O67230+O67231); experiment: spectrophotometric methyl viologen reduction at […] nm, enriched fraction; in-gel activity; assay type: biochemical; conditions: 10 mM 2-oxoglutarate, 0.1 mM CoA, 0.2 mM TPP, 1 mM MgCl2, 5 mM methyl viologen, pH 8, 80 °C, anaerobic; decarboxylation direction
T1 construct: gene forA2; native, enriched from soluble fraction (DEAE, then Bio-Gel HTP); dimer of pentamers (αβγδε)2, about 250-300 kDa; Aq_1163 may co-migrate; with 2-oxoglutarate:ferredoxin oxidoreductase subunit epsilon (ferredoxin-like, Fd2); 2-oxoglutarate:ferredoxin oxidoreductase subunit delta
T1 sequence (O67229 1-389): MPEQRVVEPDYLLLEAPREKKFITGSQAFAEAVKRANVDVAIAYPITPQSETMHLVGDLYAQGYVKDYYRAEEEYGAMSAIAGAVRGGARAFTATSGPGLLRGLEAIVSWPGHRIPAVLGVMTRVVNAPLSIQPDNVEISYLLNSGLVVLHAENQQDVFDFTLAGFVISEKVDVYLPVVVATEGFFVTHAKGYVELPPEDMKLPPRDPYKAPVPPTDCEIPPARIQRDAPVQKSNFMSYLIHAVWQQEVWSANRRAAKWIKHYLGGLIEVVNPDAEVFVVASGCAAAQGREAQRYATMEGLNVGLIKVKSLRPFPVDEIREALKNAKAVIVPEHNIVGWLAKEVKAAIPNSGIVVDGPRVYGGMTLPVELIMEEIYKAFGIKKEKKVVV
T1 sequence (O67230 1-289): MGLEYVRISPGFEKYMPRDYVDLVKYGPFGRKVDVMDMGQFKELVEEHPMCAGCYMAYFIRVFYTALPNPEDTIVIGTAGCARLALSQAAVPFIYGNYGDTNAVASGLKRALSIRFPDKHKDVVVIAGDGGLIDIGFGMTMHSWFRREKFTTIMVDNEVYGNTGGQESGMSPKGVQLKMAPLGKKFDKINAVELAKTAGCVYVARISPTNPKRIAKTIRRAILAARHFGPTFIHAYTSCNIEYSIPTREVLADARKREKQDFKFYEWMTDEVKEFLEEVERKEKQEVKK
T1 sequence (O67231 1-230): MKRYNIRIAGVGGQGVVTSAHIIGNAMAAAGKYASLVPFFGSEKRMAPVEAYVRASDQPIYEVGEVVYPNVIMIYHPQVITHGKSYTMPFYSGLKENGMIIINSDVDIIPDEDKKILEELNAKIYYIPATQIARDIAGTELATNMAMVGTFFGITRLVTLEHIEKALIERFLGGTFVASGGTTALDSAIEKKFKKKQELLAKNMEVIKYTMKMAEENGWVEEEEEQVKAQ
T1 sequence (O67228 29-244 partner limits assumed): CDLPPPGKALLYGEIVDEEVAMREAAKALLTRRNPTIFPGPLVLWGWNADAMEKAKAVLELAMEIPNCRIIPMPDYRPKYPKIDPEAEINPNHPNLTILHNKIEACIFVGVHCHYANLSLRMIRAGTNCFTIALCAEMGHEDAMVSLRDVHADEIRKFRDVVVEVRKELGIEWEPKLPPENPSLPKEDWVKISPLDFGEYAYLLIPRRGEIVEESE
T1 sequence (O67232 whole entry partner): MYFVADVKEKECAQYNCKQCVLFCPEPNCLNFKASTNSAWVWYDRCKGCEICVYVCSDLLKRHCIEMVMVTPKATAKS

[2] = biological target: T2, Fd7Strep (recombinant ferredoxin 7) (Aquifex aeolicus, UniProt Z9T2O6C3G9); experiment: EPR spectroscopy and UV-visible absorption; assay type: binding; conditions: purified protein, dithionite-reduced, […] K
T2 construct: full length with C-terminal Strep-tag II, expressed in E. coli MG1655 ΔiscR; native protein 80 residues, apoprotein 9130 Da; native N-terminus […]
T2 sequence (Z9T2O6C3G9 1-80): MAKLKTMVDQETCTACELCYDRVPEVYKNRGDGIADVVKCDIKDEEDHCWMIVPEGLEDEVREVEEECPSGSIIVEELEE

[3] = biological target: 2-oxoglutarate:ferredoxin oxidoreductase (OGOR) of Aquifex aeolicus, five-subunit complex FORαβγδε (Aquifex aeolicus (endogenous in A. aeolicus VF5 cells)) (UniProt O67229); experiment: native gel or EMSA; 3-12% Blue Native gel of elution fraction 2 of the Fd7Strep pull-down; in-gel PFOR and OGOR activity at roughly 300 kDa; proteins of the activity bands identified by mass spectrometry; for the self-association: dimer of the αβγδε protomer, from the estimated mass
[4] = biological target: T3, PFOR (pyruvate:ferredoxin oxidoreductase, Porαβγδε) (Aquifex aeolicus, UniProt O67254+O67255+O67256); experiment: spectrophotometric methyl viologen reduction at […] nm, enriched fraction; in-gel activity; assay type: biochemical; conditions: 10 mM pyruvate, 0.1 mM CoA, 0.2 mM TPP, 1 mM MgCl2, 5 mM methyl viologen, pH 8, 80 °C, anaerobic; decarboxylation direction
T3 construct: gene forA1; native, enriched from soluble fraction (DEAE step); dimer of pentamers (αβγδε)2, about 250-300 kDa; with pyruvate:ferredoxin oxidoreductase subunit epsilon (ferredoxin-like, Fd3); pyruvate:ferredoxin oxidoreductase subunit delta
T3 sequence (O67255 entry or part of it): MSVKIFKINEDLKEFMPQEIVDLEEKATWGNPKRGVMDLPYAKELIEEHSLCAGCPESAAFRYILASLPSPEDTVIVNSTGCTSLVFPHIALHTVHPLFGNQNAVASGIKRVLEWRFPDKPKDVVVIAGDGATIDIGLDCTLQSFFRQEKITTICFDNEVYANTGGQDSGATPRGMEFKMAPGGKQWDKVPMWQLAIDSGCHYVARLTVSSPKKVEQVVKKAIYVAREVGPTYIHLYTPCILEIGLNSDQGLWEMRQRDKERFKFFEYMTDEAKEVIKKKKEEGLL
T3 sequence (O67254 entry or part of it): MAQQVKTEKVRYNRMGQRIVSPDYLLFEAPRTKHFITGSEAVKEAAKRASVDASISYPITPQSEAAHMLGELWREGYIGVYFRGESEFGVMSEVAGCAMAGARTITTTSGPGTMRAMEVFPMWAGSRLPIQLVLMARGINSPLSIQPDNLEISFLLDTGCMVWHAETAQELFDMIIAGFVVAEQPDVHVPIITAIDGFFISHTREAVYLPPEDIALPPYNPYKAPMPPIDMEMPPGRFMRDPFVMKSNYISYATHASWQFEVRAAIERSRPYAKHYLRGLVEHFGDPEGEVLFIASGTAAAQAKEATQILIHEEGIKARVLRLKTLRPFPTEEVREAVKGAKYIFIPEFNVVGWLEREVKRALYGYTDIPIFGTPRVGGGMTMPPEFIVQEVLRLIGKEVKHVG
T3 sequence (O67256 entry or part of it): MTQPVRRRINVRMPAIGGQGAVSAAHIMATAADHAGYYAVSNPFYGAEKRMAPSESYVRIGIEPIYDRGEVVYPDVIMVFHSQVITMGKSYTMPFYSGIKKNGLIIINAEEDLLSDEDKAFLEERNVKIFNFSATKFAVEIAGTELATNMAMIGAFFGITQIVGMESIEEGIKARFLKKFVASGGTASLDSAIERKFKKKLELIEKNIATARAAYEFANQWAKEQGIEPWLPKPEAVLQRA
T3 sequence (O67251 whole entry, further chain): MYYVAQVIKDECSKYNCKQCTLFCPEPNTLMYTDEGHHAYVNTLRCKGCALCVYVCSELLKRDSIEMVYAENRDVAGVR
T3 sequence (O67252 entry or part of it, further chain): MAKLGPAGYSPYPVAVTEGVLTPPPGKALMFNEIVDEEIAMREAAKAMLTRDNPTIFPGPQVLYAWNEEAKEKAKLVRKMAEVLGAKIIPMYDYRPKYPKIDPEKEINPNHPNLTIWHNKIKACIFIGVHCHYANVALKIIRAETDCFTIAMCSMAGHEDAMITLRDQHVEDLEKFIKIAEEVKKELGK

[5] = biological target: pyruvate:ferredoxin oxidoreductase (PFOR) of Aquifex aeolicus, five-subunit complex PORαβγδε (Aquifex aeolicus (endogenous in A. aeolicus VF5 cells)) (UniProt O67254); experiment: native gel or EMSA; 3-12% Blue Native gel of elution fraction 2 of the Fd7Strep pull-down; in-gel PFOR and OGOR activity at roughly 300 kDa; proteins of the activity bands identified by mass spectrometry; for the self-association: dimer of the αβγδε protomer, from the estimated mass

Compound: O=C(O)CCC(=O)C(=O)O [2-oxoglutarate]
spectrophotometric methyl viologen reduction at 604 nm, enriched fraction; in-ge [1]: pyruvate for PFOR and 2-oxoglutarate for OGOR

Compound: [S]12[Fe]3[S]4[Fe]1[S]1[Fe]2[S]3[Fe]41 [[4Fe-4S] cluster]
EPR spectroscopy and UV-visible absorption [2]: confirming the presence of one [4Fe-4S] center per Fd molecule

stoichiometry N [3]: 2
Compound: 2-oxoglutarate:ferredoxin oxidoreductase (OGOR) of Aquifex aeolicus, five-subunit complex FORαβγδε (from UniProt O67229 1-389; O67230 1-289; O67231 1-230; O67232 1-78; O67228 1-244)

Compound: CC(=O)C(=O)O [pyruvate]
spectrophotometric methyl viologen reduction at 604 nm, enriched fraction; in-ge [4]: pyruvate for PFOR and 2-oxoglutarate for OGOR

stoichiometry N [5]: 2
Compound: pyruvate:ferredoxin oxidoreductase (PFOR) of Aquifex aeolicus, five-subunit complex PORαβγδε (from UniProt O67254 1-404; O67255 1-286; O67256 1-241; O67251 1-79; O67252 1-189)

From PMC10052474, “Carbon Fixation in the Chemolithoautotrophic Bacterium Aquifex aeolicus Involves Two Low-Potential Ferredoxins as Partners of the PFOR and OGOR Enzymes” (Life, 2023)
